What was measured:
[1] = system: SMAD3; settings: cited from earlier work
[2] = biological target: SMAD3 (Homo sapiens, UniProt P84022); settings: cited from earlier work
[3] = biological target: T1, SMAD3 (Rattus norvegicus, UniProt P84025); test: Excitability of DRG neurons with TGF-β and SIS3; type: cell-based; settings: SIS3 3 μM
T1 construct: endogenous in cells; host or cells: primary DRG neurons
Protocol: SIS3 was dissolved in DMSO and diluted in culture media that was added at the time of plating with a final concentration of 3 μM. After one hour, the culture wells received TGF-β1 (0.2 ng/ml) for further incubation. Most cells were patched at 12-24 h, and both agents were refreshed daily if incubated for over 24 h.

[4] = biological target: T2, TRPV1 (Rattus norvegicus, UniProt O35433); test: Capsaicin-induced inward current in DRG neurons; type: cell-based
T2 construct: endogenous in cells; host or cells: primary rat DRG neurons
Protocol: (§1) Electrophysiology. Whole-cell voltage patch-clamp recordings were conducted at room temperature (22-23° C.) on the stage of an inverted phase contrast microscope (Nikon Inc., Melville, N.Y.). The recording pipettes were pulled from borosilicate glass to give final resistances of […]. Data were acquired with Digidata interface (1200 series, Axon Instruments) and pClamp software (version 9.1, Axon Instruments). The concentrations of the electrode solutions (in mM) used in these experiments were as follows: for recording action potential, K^+ current and non-selective cationic current (pH adjusted to 7.3-7.4 using KOH): potassium gluconate (115), KCl (25), NaCl (5), HEPES (10), CaCl (1), EGTA (1.12) and ATP-Mg (2); for recording Na^+ current (pH adjusted to 7.3-7.4 using NaOH): CsF (110), MgCl2 (5), EGTA (11), NaCl (10) and HEPES (10). The cells were bathed in modified Tyrode saline consisting of (in mM): NaCl (135), KCl (5.4), MgCl2 (1), CaCl2 (2), NaH2PO3 (0.1), HEPES (10) and glucose (10). […] Action potentials were recorded in mode of I-clamp after observed membrane potential setting at I=0, and the currents were recorded by switching mode to v-clamp. The current signals were recorded to disk for off-line analysis using pCLAMP fit and Origin 7. Results were expressed as means±SE, n=number of cells. […]

[5] = system: TGF-β1, TGF-β2, and TGF-β3; settings: cited from earlier work
[6] = system: rat DRG neurons; test: Whole-cell patch-clamp excitability of cultured DRG neurons; type: cell-based
Protocol: Dorsal Root Ganglia (DRG) neurons culture. Adult Sprague-Dawley rats (120-150 g) were sacrificed by decapitation. Thoracic and lumbar DRGs were then bilaterally dissected out and transferred to ice-cold Minimal Essential Medium (Gibco, Grand Island, N.Y.) supplemented with penicillin-streptomycin (2×, Gibco, Grand Island, N.Y.). After trimming axons and connective tissue, ganglia were transferred into enzyme solution, i.e., Hank's Balanced Salt Solution containing 5 mg/ml collagenase (Type 2, Worthington, Lakewood, N.J.), and incubated for three hours at 5% CO2-95% O2 37° C. A pellet was subsequently obtained by repeated trituration through flame-polished glass pipettes and centrifuged at 50×g for 10 minutes. Single cells were resuspended and plated onto poly-1-ornithine (Sigma) coated coverslips with neurobasal media (Gibco) supplemented with albumin solution (0.7%, Sigma), penicillin-streptomycin (2×), B27 with retinoic acid (2×, Invitrogen), beta-mercaptoethanol (0.11 mM, Gibco), mouse nerve growth factor ([…], Promega, Madison, Wis.) and L-glutamine (2×, Gibco). Recombinant TGF-β1 and TGF-β2 (Calbiochem, cat #616455, PF017) were dissolved in 10% ethanol in phosphate buffered saline (PBS) to yield a stock concentration of 10 ng/μl. TGF-β1 or TGF-β2 (10 ng/ml) was added to cultures at the beginning of incubation at 37° C. 5% CO2-95% O2.
Electrophysiology. Whole-cell voltage patch-clamp recordings were conducted at room temperature (22-23° C.) on the stage of an inverted phase contrast microscope (Nikon Inc., Melville, N.Y.). The recording pipettes were pulled from borosilicate glass to give final resistances of […]. Data were acquired with Digidata interface (1200 series, Axon Instruments) and pClamp software (version 9.1, Axon Instruments). The concentrations of the electrode solutions (in mM) used in these experiments were as follows: for recording action potential, K^+ current and non-selective cationic current (pH adjusted to 7.3-7.4 using KOH): potassium gluconate (115), KCl (25), NaCl (5), HEPES (10), CaCl (1), EGTA (1.12) and ATP-Mg (2); for recording Na^+ current (pH adjusted to 7.3-7.4 using NaOH): CsF (110), MgCl2 (5), EGTA (11), NaCl (10) and HEPES (10). The cells were bathed in modified Tyrode saline consisting of (in mM): NaCl (135), KCl (5.4), MgCl2 (1), CaCl2 (2), NaH2PO3 (0.1), HEPES (10) and glucose (10). The osmolality was maintained at 280-300 mOsm for the intracellular electrolyte and 300-330 mOsm for the extracellular bath solution. […] Action potentials were recorded in mode of I-clamp after observed membrane potential setting at I=0, and the currents were recorded by switching mode to v-clamp. The current signals were recorded to disk for off-line analysis using pCLAMP fit and Origin 7. Results were expressed as means±SE, n=number of cells.

[7] = system: DRG neurons; test: Patch-clamp excitability of DRG neurons from transgenic mice lacking glial TGF-β receptor response; type: cell-based, mouse
From the text: Transgenic mice. To decrease the response to TGF-β specifically in astrocytes, we took advantage of a dominant negative mutation in the type II TGF-β receptor that has been cloned into a bidirectional doxycycline-regulatable element (bi-tetO) that also drives enhanced green fluorescent protein (GFP). Andrews, Z. B. et al., 2006 Neurobiol Dis. 21, 568-75. TetO-TBR2-DN mice were obtained from Jackson Laboratories, Bar Harbor, Me. This line was crossed to a GFAP-tTA transgenic line (Jackson Laboratories). This line confers expression of tetO transgenes to astrocytes in the absence of doxycycline, and is induced by injuries, including stroke. DRGs were dissected from these mice and cultured as above.
(§2) Electrophysiology. Whole-cell voltage patch-clamp recordings were conducted at room temperature (22-23° C.) on the stage of an inverted phase contrast microscope (Nikon Inc., Melville, N.Y.). The recording pipettes were pulled from borosilicate glass to give final resistances of […]. Data were acquired with Digidata interface (1200 series, Axon Instruments) and pClamp software (version 9.1, Axon Instruments). The concentrations of the electrode solutions (in mM) used in these experiments were as follows: for recording action potential, K^+ current and non-selective cationic current (pH adjusted to 7.3-7.4 using KOH): potassium gluconate (115), KCl (25), NaCl (5), HEPES (10), CaCl (1), EGTA (1.12) and ATP-Mg (2); for recording Na^+ current (pH adjusted to 7.3-7.4 using NaOH): CsF (110), MgCl2 (5), EGTA (11), NaCl (10) and HEPES (10). The cells were bathed in modified Tyrode saline consisting of (in mM): NaCl (135), KCl (5.4), MgCl2 (1), CaCl2 (2), NaH2PO3 (0.1), HEPES (10) and glucose (10). The osmolality was maintained at 280-300 mOsm for the intracellular electrolyte and 300-330 mOsm for the extracellular bath solution. Agents such as capsaicin, capsazepine, TEA, 4AP, TTX etc were delivered through a valve control system (BPS-4, Scientific Instrument, New York). Prior to patch clamping a cell, the amplifier (Axopatch 200B, Axon Instruments, CA, USA) was zeroed so that any junction potential was balanced by an offset potential. High resistance (Gigaohm) seals were formed between the recording electrode and cell membrane and ruptured by suction using standard patch clamp recording methods. Action potentials were recorded in mode of I-clamp after observed membrane potential setting at I=0, and the currents were recorded by switching mode to v-clamp. The current signals were recorded to disk for off-line analysis using pCLAMP fit and Origin 7. Results were expressed as means±SE, n=number of cells.

[8] = system: sodium channel; test: Sodium channel currents in DRG neurons; type: cell-based, rat
Protocol: as §1

[9] = system: Kv channels; test: Voltage-dependent K+ currents in DRG neurons; type: cell-based, rat
Protocol: as §2
TGF-β influences K^+ and Na^+ channel activity (FIGS. 6 and 7). Voltage-dependent potassium (Kv) currents play a fundamental role in determining neuronal excitability. […]

[10] = system: conscious rats; test: Nocifensive behaviors to electrical stimulation of the pancreas after intrapancreatic infusion of TGF-β; type: in vivo; settings: intra-pancreatic infusion, 400 ng per rat
Protocol: Intrapancreatic infusion of TGF-β. Rats were anesthetized with sodium nembutal (Abbott Laboratories, Chicago, Ill.) (50 mg/kg body weight, i.p.). The peritoneum was incised to expose the duodenum, and the duodenal loop was pulled out. The pancreatic duct entering the duodenum was identified under dissecting microscope, and a small niche was made into the duct with a 30-gauge needle. A polyethylene 10 tubing (0.61 mm outer diameter) (Becton Dickinson and Company, Franklin Lakes, N.J.) was guided into the duct and tied to secure its position. The position of the tube in the pancreatic duct was confirmed by observing bile flowing through the tubing. The common bile duct was ligated close to the liver to prevent entry of the injected substance into the liver. Similarly the duct was ligated near its entry into the duodenum. Four hundred μl (0.4 ml) per rat of 400 ng of TGF-β1 or TGF-β2 in 10% ethanol in phosphate buffered saline (PBS) or vehicle alone was injected through a syringe connected to the tubing. The tubing was carefully removed and bile flow from the liver into the duodenum was re-established. The abdominal cavity was closed with sutures and rats allowed to recover.
Behavioral Studies of Rats with Chronic Pancreatitis. […] The number of nocifensive behaviors observed during 5 min of stimulation period was counted. […]

[11] = system: spinal cord laminae I/II FOS positive cells; test: FOS immunochemistry in spinal cord after intrapancreatic TGF-β infusion and electrical stimulation; type: in vivo, rat; settings: intra-pancreatic infusion 400 ng followed by ES
Protocol: FOS Immunochemistry. Eight rats were used for this experiment (TGF-β n=4; Vehicle n=4). TGF-β2 (400 ng) in 0.4 ml of 10% ETOH/PBS or vehicle alone were infused into pancreatic duct of rats. 24 hours later rats underwent noxious electrical stimulation of the pancreas (5 mA for 5 minutes). Thirty minutes later the rats were transcardially perfused with 150 ml of normal saline followed by ice cold 400 ml of 4% paraformaldehyde in 0.1M phosphate buffer (PB) pH 7.4. Spinal cord segments corresponding to DRG T8-T10 were identified, cut and post-fixed in 4% paraformaldehyde over night. The samples were then transferred to 30% sucrose in 0.1 M PB for 24 hours at 4° C. followed by freezing on dry ice with optimum cutting temperature (OCT). Frozen serial coronal sections (35 μm) were cut on a cryostat, collected in separate wells of a 24-well plate and stored floating in antifreeze at −20° C. We processed a total of 6 sections per segment. The sections were stained with a rabbit polyclonal primary antiserum directed against FOS (ab7963, Abcam, Cambridge Mass.), diluted (1:2000) in PB saline containing 3% normal goat serum and 0.1% Triton X-100, for 24 h at 4° C. […] The number of FOS positive cells in spinal cord laminae I/II were counted under 40× magnification from 6 slices per individual spinal segment per animal by two blinded investigators.

T1 sequence (P84025 whole entry): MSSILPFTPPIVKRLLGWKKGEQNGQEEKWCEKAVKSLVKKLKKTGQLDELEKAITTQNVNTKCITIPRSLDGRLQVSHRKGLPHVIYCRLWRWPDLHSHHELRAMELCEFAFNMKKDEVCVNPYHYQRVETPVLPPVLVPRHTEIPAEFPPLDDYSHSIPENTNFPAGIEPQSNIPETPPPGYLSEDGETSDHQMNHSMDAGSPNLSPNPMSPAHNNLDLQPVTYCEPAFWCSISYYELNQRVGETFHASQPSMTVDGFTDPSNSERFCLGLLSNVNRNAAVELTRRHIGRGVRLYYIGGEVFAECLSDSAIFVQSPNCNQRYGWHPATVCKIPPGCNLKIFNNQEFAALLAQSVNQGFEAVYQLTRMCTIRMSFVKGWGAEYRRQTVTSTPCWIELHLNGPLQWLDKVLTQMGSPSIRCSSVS
T2 sequence (O35433 whole entry): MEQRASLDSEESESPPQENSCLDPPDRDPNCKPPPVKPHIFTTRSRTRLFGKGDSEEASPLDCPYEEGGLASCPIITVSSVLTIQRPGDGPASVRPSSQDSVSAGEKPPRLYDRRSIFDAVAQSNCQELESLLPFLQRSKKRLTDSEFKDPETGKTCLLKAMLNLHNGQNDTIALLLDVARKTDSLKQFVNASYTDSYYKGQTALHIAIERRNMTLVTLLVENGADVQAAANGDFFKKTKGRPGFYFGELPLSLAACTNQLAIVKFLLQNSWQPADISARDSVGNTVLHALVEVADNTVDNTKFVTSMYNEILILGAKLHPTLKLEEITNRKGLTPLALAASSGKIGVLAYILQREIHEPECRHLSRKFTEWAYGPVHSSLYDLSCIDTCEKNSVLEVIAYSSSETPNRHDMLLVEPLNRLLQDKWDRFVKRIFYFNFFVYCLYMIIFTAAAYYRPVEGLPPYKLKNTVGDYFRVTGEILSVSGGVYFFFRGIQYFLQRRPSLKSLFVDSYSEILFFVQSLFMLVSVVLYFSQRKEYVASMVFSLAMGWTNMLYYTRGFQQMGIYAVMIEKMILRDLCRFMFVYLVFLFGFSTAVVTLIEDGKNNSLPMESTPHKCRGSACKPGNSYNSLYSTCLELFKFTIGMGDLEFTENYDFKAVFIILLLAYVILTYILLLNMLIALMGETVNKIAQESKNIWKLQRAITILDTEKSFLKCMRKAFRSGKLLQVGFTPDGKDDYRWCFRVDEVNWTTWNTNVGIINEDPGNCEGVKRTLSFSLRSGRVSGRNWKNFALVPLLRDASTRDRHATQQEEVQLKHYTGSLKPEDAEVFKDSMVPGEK
Sequence of SMAD3 (Homo sapiens, UniProt P84022) (P84022 whole entry): as the sequence (P84025 whole entry) above

NC(=O)c1ccc(-c2nc(-c3ccc4c(c3)OCO4)c(-c3ccccn3)[nH]2)cc1 [SB431542]
Smad3 phosphorylation [1]: selective inhibition of Smad3 phosphorylation

Cc1cc2c(cc1C)CN(C(=O)/C=C/c1c(-c3ccccc3)n(C)c3ncccc13)CC2.Cl [SIS3]
production of extracellular matrix ([2]; TGF-β1-treated normal fibroblasts and scleroderma fibroblasts): blocked excessive production of extracellular matrix
Smad3 phosphorylation [2]: suppresses Smad3 phosphorylation
decrease in RMP induced by TGFβ ([3]; TGF-β 10 ng/ml, 48 hours): prevented the decrease in RMP
TGF-β1 induced changes in frequency of action potentials at 2× rheobase current ([3]; TGF-β1 0.2 ng/ml): attenuate
TGF-β1 induced changes in resting membrane potential (RMP) ([3]; TGF-β1 0.2 ng/ml): attenuate
TGF-β1 induced changes in rheobase ([3]; TGF-β1 0.2 ng/ml): attenuate

Oc1cc2c(cc1O)CN(C(=S)NCCc1ccc(Cl)cc1)CCC2 [capsazepine, reference compound]
effect on capsaicin-induced inward current ([4]; middle sized neurons): suppressible

GC1008: humanized TGF-β-neutralizing monoclonal antibody
neutralization of TGF-β ligands/isoforms [5]: capable of neutralizing all three TGF-β isoforms

TGF-β
capsaicin induced current ([4]; neurons treated with TGF-β, n=17): 724.7±129.4 pA
resting membrane potential (RMP) ([6]; rat DRG cultures exposed to TGF-β, n=21): −48.8±7.6 mV
proportion of tested cells showing multiple action potentials ([6]; rat DRG neurons): 43%
current pulse (rheobase) required for triggering an action potential ([6]; rat DRG neurons, n=11): 0.15±0.09 nA
number of action potentials evoked by two times rheobase current stimulation ([6]; rat DRG neurons, n=17): 2.75 Hz
RMP ([7]; transgenic mouse DRG preparations, 10 ng/ml): −49.7±5.5 mV
density of TTXR current ([8]; n=7): 114.25±27.32
density of total INa ([8]; n=23): 216.12±15.01
tested neurons showing an absence of IA current ([9]; TGF-β treated neurons): 11 of 22
Itotal density ([9]; all Kv channels, DRG neurons in culture): did not result in a significant reduction
IA density ([9]; at +30 mV, n=10): 29.6±3.8 pA/pF

TGF-β1: Recombinant TGF-β1 (Calbiochem)
rheobase ([7]; transgenic mouse DRG): 0.03 nA
firing threshold ([7]; transgenic mouse DRG, n=7): −35 mV
spikes ([7]; transgenic mouse DRG, n=7): 2.8±1.5
behavioral response to noxious stimulation (electric stimulation, ES) [10]: hyperalgesic behavioral response

B1: TGF-β2: Recombinant TGF-β2 (Calbiochem) (protein, UniProt P61812 303-414, looked up)
Transforming growth factor …: ALDAAYCFRNVQDNCCLRPLYIDFKRDLGWKWIHEPKGYNANFCAGACPYLWSSDTQHSRVLSLYNTINPEASASPCCVSQDLEPLTILYYIGKTPKIEQLSNMIVKSCKCS
modifications: Transforming growth factor beta-2
FOS expression in the spinal cord [11]: greater FOS expression
behavioral response to noxious stimulation (electric stimulation, ES) [10]: hyperalgesic behavioral response

Source: patent US8800906B2, “Use of transforming growth factor-beta neutralizing antibodies and fusion proteins thereof in treating pain” (The Board of Trustees of the Leland Stanford Junior …, priority 2010, dated 2014)
